Assay results: patent publication US10570122B2, “Compounds with anti-tumoral activity” (AB Science, priority 2015, dated 2020)

Tests used:
HCT116 = assay: CellTiter-Blue cell-based survival/proliferation assay, HCT116; conditions: Homo sapiens, HCT-116; HCT116 colorectal tumor cell line, 48 h
How it was run: (§1)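 Tenfold compound dilutions (0–10 μM) were added to 1·10^4 cells/well. Plates incubated 48 h at 37 °C. CellTiter-Blue reduction (4 h, 37 °C) was read as fluorescence at 590 nm, background-corrected with a cell-free blank.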

MDAMB231 = assay: CellTiter-Blue cell-based survival/proliferation assay, MDAMB231; conditions: Homo sapiens, MDA-MB-231; MDAMB231 breast tumor cell line, 48 h
How it was run: as §1

TOV112D = assay: CellTiter-Blue cell-based survival/proliferation assay, TOV112D; conditions: Homo sapiens; TOV112D ovary tumor cell line, 48 h
How it was run: as §1

KARPAS299 = assay: CellTiter-Blue cell-based survival/proliferation assay, KARPAS299; conditions: Homo sapiens, KARPAS-299, Lymphoma cell line KARPAS299, 48 h, read-out: Anti-tumoral activity (measured IC50) KARPAS299
How it was run: as §1

PLCPRF5 = assay: CellTiter-Blue cell-based survival/proliferation assay, PLCPRF5; conditions: Homo sapiens, PLC-PRF-5; PLC_PRF5 liver tumor cell line, 48 h
How it was run: as §1

A4513 = assay: CellTiter-Blue cell-based survival/proliferation assay, A4513; conditions: Homo sapiens; A4513 Ewing cell line, 48 h
Method: (§2) Cell-Based Proliferation Screening of Compounds
(§3) CellTiter-Blue cell-based survival/proliferation assay (Promega G8080) was performed on tumor cell lines. A total of 1·10^4 cells/well/50 μl were seeded in a 96-wells plate. Treatment was initiated by addition of a 2× drug solution of 1/10 serial dilutions ranging from 0 to 10 μM. Cells were grown for 48 h at 37° C. and then incubated with 10 μl/well of Promega CellTiter-Bleue reagent for 4 h at 37° C. The amount of resorufin dye formed was quantified by its fluorescence emission at 590 nm using a scanning multiwell spectrophotometer (OPTIMA, BMG labtech, France). A blank well without cells was used as a background control for the spectrophotometer.

A549 = assay: CellTiter-Blue cell-based survival/proliferation assay, A549; conditions: Homo sapiens; A549 lung tumor cell line, 48 h
How it was run: as §1

HEPG2 = assay: CellTiter-Blue cell-based survival/proliferation assay, HEPG2; conditions: Homo sapiens; HEPG2 liver tumor cell line, 48 h
How it was run: as §1

PANC1 = assay: CellTiter-Blue cell-based survival/proliferation assay, PANC1; conditions: Homo sapiens, PANC-1; PANC_1 pancreas tumor cell line, 48 h
How it was run: as §1

DU145 = assay: CellTiter-Blue cell-based survival/proliferation assay, DU145; conditions: Homo sapiens, DU-145; DU145 prostate tumor cell line, 48 h
How it was run: as §1

MESSA = assay: CellTiter-Blue cell-based survival/proliferation assay, MESSA; conditions: Homo sapiens, MES-SA; MESSA ovary tumor cell line, 48 h
How it was run: as §1

HL60 = assay: CellTiter-Blue cell-based survival/proliferation assay, HL60; conditions: Homo sapiens, HL-60, Leukemia cell line HL60, 48 h, read-out: Anti-tumoral activity (measured IC50) HL60
How it was run: as §1

MELWO = assay: CellTiter-Blue cell-based survival/proliferation assay, MELWO; conditions: Homo sapiens; MEL_WO melanoma cell line, 48 h
Method: as §2, §3

REC1 = assay: CellTiter-Blue cell-based survival/proliferation assay, REC1; conditions: Homo sapiens, Lymphoma cell line REC1, 48 h, read-out: Anti-tumoral activity (measured IC50) REC1
How it was run: as §1

BT20 = assay: CellTiter-Blue cell-based survival/proliferation assay, BT20; conditions: Homo sapiens, BT-20; BT20 breast tumor cell line, 48 h
How it was run: as §1

BXPC3 = assay: CellTiter-Blue cell-based survival/proliferation assay, BXPC3; conditions: Homo sapiens, BXPC-3; BXPC3 pancreas tumor cell line, 48 h
How it was run: as §1

CLS354 = assay: CellTiter-Blue cell-based survival/proliferation assay, CLS354; conditions: Homo sapiens, CLS-354; CLS354_4 head & neck tumor cell line, 48 h
How it was run: as §1

H1299 = assay: CellTiter-Blue cell-based survival/proliferation assay, H1299; conditions: Homo sapiens, NCI-H1299; H1299 lung tumor cell line, 48 h
How it was run: as §1

U118 = assay: CellTiter-Blue cell-based survival/proliferation assay, U118; conditions: Homo sapiens; U118 glioblastoma cell line, 48 h
Method: as §2, §3

SW579 = assay: CellTiter-Blue cell-based survival/proliferation assay, SW579; conditions: Homo sapiens; SW579 head & neck tumor cell line, 48 h
How it was run: as §1

DLD1 = assay: CellTiter-Blue cell-based survival/proliferation assay, DLD1; conditions: Homo sapiens, DLD-1; DLD_1 colorectal tumor cell line, 48 h
How it was run: as §1

AGS = assay: CellTiter-Blue cell-based survival/proliferation assay, AGS; conditions: Homo sapiens; AGS stomach tumor cell line, 48 h
How it was run: as §1

U2OS = assay: CellTiter-Blue cell-based survival/proliferation assay, U2OS; conditions: Homo sapiens; U2OS osteosarcoma cell line, 48 h
Method: as §2, §3

HGC27 = assay: CellTiter-Blue cell-based survival/proliferation assay, HGC27; conditions: Homo sapiens, HGC-27; HGC27 stomach tumor cell line, 48 h
How it was run: as §1

U87MG = assay: CellTiter-Blue cell-based survival/proliferation assay, U87MG; conditions: Homo sapiens, U-87 MG; U87_MG glioblastoma cell line, 48 h
Method: as §2, §3

CALU6 = assay: CellTiter-Blue cell-based survival/proliferation assay, CALU6; conditions: Homo sapiens, Calu-6; CALU6 lung tumor cell line, 48 h
How it was run: as §1

PC3 = assay: CellTiter-Blue cell-based survival/proliferation assay, PC3; conditions: Homo sapiens, PC-3; PC3 prostate tumor cell line, 48 h
How it was run: as §1

A375 = assay: CellTiter-Blue cell-based survival/proliferation assay, A375; conditions: Homo sapiens, A-375; A375 melanoma cell line, 48 h
Method: as §2, §3

HUT78 = assay: CellTiter-Blue cell-based survival/proliferation assay, HUT78; conditions: Homo sapiens, Lymphoma cell line HUT78, 48 h, read-out: Anti-tumoral activity (measured IC50) HUT78
How it was run: as §1

ACHN = assay: CellTiter-Blue cell-based survival/proliferation assay, ACHN; conditions: Homo sapiens; ACHN kidney tumor cell line, 48 h
How it was run: as §1

A498 = assay: CellTiter-Blue cell-based survival/proliferation assay, A498; conditions: Homo sapiens; A498 kidney tumor cell line, 48 h
How it was run: as §1

OPM2 = assay: CellTiter-Blue cell-based survival/proliferation assay, OPM2; conditions: Homo sapiens, OPM-2, Myeloma cell line OPM2, 48 h, read-out: Anti-tumoral activity (measured IC50) OPM2
How it was run: as §1

HEP2 = assay: CellTiter-Blue cell-based survival/proliferation assay, HEP2; conditions: Homo sapiens, HEp-2; HEP2 head & neck tumor cell line, 48 h
How it was run: as §1

| SMILES | IC50 (HCT116) [µM] | IC50 (MDAMB231) [µM] | IC50 (TOV112D) [µM] | IC50 (PLCPRF5) [µM] | IC50 (A4513) [µM] | IC50 (HEPG2) [µM] | IC50 (PANC1) [µM] | IC50 (DU145) [µM] | IC50 (MESSA) [µM] | IC50 (HL60) [µM] | IC50 (MELWO) [µM] | IC50 (BT20) [µM] | IC50 (BXPC3) [µM] | IC50 (CLS354) [µM] | IC50 (H1299) [µM] | IC50 (U118) [µM] | IC50 (SW579) [µM] | IC50 (DLD1) [µM] | IC50 (AGS) [µM] | IC50 (U2OS) [µM] | further results |
| --- | --- | --- | --- | --- | --- | --- | --- | --- | --- | --- | --- | --- | --- | --- | --- | --- | --- | --- | --- | --- | --- |
| CCOCc1ccc(C)c(Nc2ncc(-c3ccc(-n4cccn4)cc3)s2)c1 [Example 004, (5-Ethoxymethyl-2-methyl-phenyl)-[5-(4-pyrazol-1-yl-phenyl)-thiazol-2-yl]-amine] | > 1 | > 1 | > 1 | > 1 | > 1 | > 1 | > 1 | > 1 | > 1 | > 1 | > 1 | > 1 | > 1 | > 1 | > 1 | > 1 | > 1 | > 1 | > 1 | > 1 | IC50 (KARPAS299): > 1 µM; IC50 (A549): > 1 µM; IC50 (REC1): > 1 µM; IC50 (HGC27): > 1 µM; IC50 (U87MG): > 1 µM; IC50 (CALU6): > 1 µM; IC50 (PC3): > 1 µM; IC50 (A375): > 1 µM; IC50 (HUT78): > 1 µM; IC50 (ACHN): > 1 µM; IC50 (A498): > 1 µM; IC50 (OPM2): > 1 µM; IC50 (HEP2): > 1 µM |
| COc1ccc(C)c(Nc2ncc(-c3ccc(-n4cccn4)nc3)o2)c1 [Example 001, (5-Methoxy-2-methyl-phenyl)-[5-(6-pyrazol-1-yl-pyridin-3-yl)-oxazol-2-yl]-amine] | > 1 | > 1 | > 1 | > 1 | > 1 | > 1 | > 1 | > 1 | > 1 | > 1 | > 1 | > 1 | > 1 | > 1 | > 1 | > 1 | > 1 | > 1 | > 1 | > 1 | IC50 (KARPAS299): 0.5 to 1 µM; IC50 (A549): > 1 µM; IC50 (REC1): 0.5 to 1 µM; IC50 (HGC27): > 1 µM; IC50 (U87MG): > 1 µM; IC50 (CALU6): > 1 µM; IC50 (PC3): > 1 µM; IC50 (A375): > 1 µM; IC50 (HUT78): > 1 µM; IC50 (ACHN): > 1 µM; IC50 (A498): > 1 µM; IC50 (OPM2): > 1 µM; IC50 (HEP2): > 1 µM |
| CCOCc1cc(C)cc(Nc2nc(-c3ccc(N4CCNC4=O)cc3)cs2)c1 [Example 018, 1-{4-[2-(3-Ethoxymethyl-(5-methyl-phenylamino))-thiazol-4-yl]-phenyl}-imidazolidin-2-one] | 0.1 to 0.5 | > 1 | ≤ 0.1 | > 1 | ≤ 0.1 | > 1 | > 1 | > 1 | > 1 | ≤ 0.1 | > 1 | > 1 | > 1 | ≤ 0.1 | > 1 | > 1 | > 1 | > 1 | > 1 | 0.1 to 0.5 | IC50 (KARPAS299): ≤ 0.1 µM; IC50 (A549): ≤ 0.1 µM; IC50 (REC1): ≤ 0.1 µM; IC50 (HGC27): 0.5 to 1 µM; IC50 (U87MG): > 1 µM; IC50 (CALU6): > 1 µM; IC50 (PC3): > 1 µM; IC50 (A375): ≤ 0.1 µM; IC50 (HUT78): ≤ 0.1 µM; IC50 (ACHN): 0.5 to 1 µM; IC50 (A498): 0.5 to 1 µM; IC50 (OPM2): ≤ 0.1 µM; IC50 (HEP2): ≤ 0.1 µM |
| COc1ccc(C)c(Nc2ncc(-c3ccc(-n4cccn4)cc3)s2)c1 [Example 011, (5-Methoxy-2-methyl-phenyl)-[5-(4-pyrazol-1-yl-phenyl)-thiazol-2-yl]-amine] | > 1 | > 1 | > 1 | > 1 | > 1 | > 1 | > 1 | > 1 | > 1 | > 1 | > 1 | > 1 | > 1 | > 1 | > 1 | > 1 | > 1 | > 1 | > 1 | > 1 | IC50 (KARPAS299): > 1 µM; IC50 (A549): > 1 µM; IC50 (REC1): > 1 µM; IC50 (HGC27): > 1 µM; IC50 (U87MG): > 1 µM; IC50 (CALU6): > 1 µM; IC50 (PC3): > 1 µM; IC50 (A375): > 1 µM; IC50 (HUT78): > 1 µM; IC50 (ACHN): > 1 µM; IC50 (A498): > 1 µM; IC50 (OPM2): > 1 µM; IC50 (HEP2): > 1 µM |
| CCOCc1ccc(C)c(Nc2nnc(-c3ccc(N4CCNC4=O)cc3)o2)c1 [Example 008, 1-{4-[5-(5-Ethoxymethyl-(2-methyl-phenylamino))-[1,3,4]oxadiazol-2-yl]-phenyl}-imidazolidin-2-one] | ≤ 0.1 | > 1 | ≤ 0.1 | > 1 | > 1 | > 1 | > 1 | > 1 | > 1 | ≤ 0.1 | 0.5 to 1 | > 1 | > 1 | 0.1 to 0.5 | > 1 | > 1 | 0.5 to 1 | > 1 | > 1 | > 1 | IC50 (KARPAS299): ≤ 0.1 µM; IC50 (REC1): ≤ 0.1 µM; IC50 (HGC27): 0.5 to 1 µM; IC50 (U87MG): > 1 µM; IC50 (CALU6): > 1 µM; IC50 (PC3): ≤ 0.1 µM; IC50 (A375): ≤ 0.1 µM; IC50 (HUT78): ≤ 0.1 µM; IC50 (ACHN): ≤ 0.1 µM; IC50 (A498): > 1 µM; IC50 (OPM2): ≤ 0.1 µM; IC50 (HEP2): ≤ 0.1 µM |
| CCOCc1ccc(C)c(Nc2nnc(-c3ccc(-n4cccn4)cc3)o2)c1 [Example 009, (5-Ethoxymethyl-2-methyl-phenyl)-[5-(4-pyrazol-1-yl-phenyl)-[1,3,4]oxadiazol-2-yl]-amine] | > 1 | > 1 | > 1 | > 1 | > 1 | > 1 | > 1 | > 1 | > 1 | > 1 | > 1 | > 1 | > 1 | > 1 | > 1 | > 1 | > 1 | > 1 | > 1 | > 1 | IC50 (A549): > 1 µM; IC50 (HGC27): > 1 µM; IC50 (U87MG): > 1 µM; IC50 (CALU6): > 1 µM; IC50 (PC3): > 1 µM; IC50 (A375): > 1 µM; IC50 (ACHN): > 1 µM; IC50 (A498): > 1 µM; IC50 (OPM2): > 1 µM; IC50 (HEP2): > 1 µM |
